Experimental data: patent publication US11083725B2 (priority 2014, dated 2021)

System: NHBE cells
Experiment: Biolog metabolic array: substrate use by NHBE cells with or without CA09 infection
Type: cell-based, human
Details: for Substrate use, 590 nm absorbance normalized to zero hour, 0 hr: Biolog PMM2, 0 hr; for Substrate use, 590 nm absorbance normalized to zero hour, 1 hr: Biolog PMM2, 1 hr; for Substrate use, 590 nm absorbance normalized to zero hour, 5 hr: Biolog PMM2, 5 hr; for Substrate use, 590 nm absorbance normalized to zero hour, 7 hr: Biolog PMM2, 7 hr
[1] = Control (uninfected) NHBE cells
[2] = Virus (CA09-infected NHBE cells, MOI 1)
[3] = Virus: CA09-infected NHBE cells, MOI 1, Biolog PMM2
[4] = Virus (CA09-infected, MOI 1) NHBE cells

| SMILES | 590 nm absorbance normalized to zero hour (substrate use), 1 hr [1] | 590 nm absorbance normalized to zero hour (substrate use), 2 hr [1] | 590 nm absorbance normalized to zero hour (substrate use), 3 hr [1] | 590 nm absorbance normalized to zero hour (substrate use), 4 hr [1] | 590 nm absorbance normalized to zero hour (substrate use), 6 hr [1] | 590 nm absorbance normalized to zero hour (substrate use), 8 hr [1] | 590 nm absorbance normalized to zero hour (substrate use), 9 hr [1] | 590 nm absorbance normalized to zero hour (substrate use), 10 hr [1] | 590 nm absorbance normalized to zero hour (substrate use), 11 hr [1] | Substrate use, 590 nm absorbance normalized to zero hour, 1 hr [1] | Substrate use, 590 nm absorbance normalized to zero hour, 5 hr [1] | Substrate use, 590 nm absorbance normalized to zero hour, 7 hr [1] | 590 nm absorbance normalized to zero hour (substrate use), 1 hr [3] | 590 nm absorbance normalized to zero hour (substrate use), 2 hr [3] | 590 nm absorbance normalized to zero hour (substrate use), 3 hr [3] | 590 nm absorbance normalized to zero hour (substrate use), 4 hr [3] | 590 nm absorbance normalized to zero hour (substrate use), 5 hr [3] | 590 nm absorbance normalized to zero hour (substrate use), 6 hr [3] | 590 nm absorbance normalized to zero hour (substrate use), 7 hr [3] | 590 nm absorbance normalized to zero hour (substrate use), 8 hr [3] | also measured |
| --- | --- | --- | --- | --- | --- | --- | --- | --- | --- | --- | --- | --- | --- | --- | --- | --- | --- | --- | --- | --- | --- |
| OC[C@@H](O)[C@@H](O[C@H]1O[C@H](CO)[C@@H](O)[C@H](O)[C@H]1O)[C@H](O)[C@@H](O)CO [Maltitol] | 1.76 | 2.36 | 2.82 | 3.07 | 3.52 | 4.77 | 5.77 | 5.24 | 5.98 | 1.76 | 3.80 | 4.49 | 1.05 | 1.03 | 1.37 | 0.98 | 0.88 | 0.89 | 0.92 | 0.96 | 590 nm absorbance normalized to zero hour (substrate use), 0 hr [1]: 1.00; Substrate use, 590 nm absorbance normalized to zero hour, 0 hr [1]: 1.00; 590 nm absorbance normalized to zero hour (substrate use), 0 hr [2]: 1.00; 590 nm absorbance normalized to zero hour (substrate use), 1 hr [2]: 1.05; 590 nm absorbance normalized to zero hour (substrate use), 2 hr [2]: 1.03; 590 nm absorbance normalized to zero hour (substrate use), 3 hr [2]: 1.37; 590 nm absorbance normalized to zero hour (substrate use), 4 hr [2]: 0.98; 590 nm absorbance normalized to zero hour (substrate use), 5 hr [2]: 0.88; 590 nm absorbance normalized to zero hour (substrate use), 6 hr [2]: 0.89; 590 nm absorbance normalized to zero hour (substrate use), 7 hr [2]: 0.92; 590 nm absorbance normalized to zero hour (substrate use), 8 hr [2]: 0.96; 590 nm absorbance normalized to zero hour (substrate use), 9 hr [2]: 1.01; 590 nm absorbance normalized to zero hour (substrate use), 10 hr [2]: 1.08; 590 nm absorbance normalized to zero hour (substrate use), 11 hr [2]: 1.16; 590 nm absorbance normalized to zero hour (substrate use), 0 hr [3]: 1.00; 590 nm absorbance normalized to zero hour (substrate use), 9 hr [3]: 1.01; 590 nm absorbance normalized to zero hour (substrate use), 10 hr [3]: 1.08; 590 nm absorbance normalized to zero hour (substrate use), 11 hr [3]: 1.16 |
| O=C(CO)[C@@H](O)[C@H](O)[C@H](O)COP(=O)(O)O [D-Fructose-6-Phosphate] | 1.03 | 0.90 | 0.59 | 0.97 | 0.23 | 0.49 | 0.97 | 0.92 | 0.64 | 1.03 | 0.54 | 1.00 | 0.59 | 0.75 | 0.87 | 0.94 | 1.11 | 1.18 | 1.27 | 1.35 | 590 nm absorbance normalized to zero hour (substrate use), 1 hr [4]: 0.59; 590 nm absorbance normalized to zero hour (substrate use), 2 hr [4]: 0.75; 590 nm absorbance normalized to zero hour (substrate use), 3 hr [4]: 0.87; 590 nm absorbance normalized to zero hour (substrate use), 4 hr [4]: 0.94; 590 nm absorbance normalized to zero hour (substrate use), 5 hr [4]: 1.11; 590 nm absorbance normalized to zero hour (substrate use), 6 hr [4]: 1.18; 590 nm absorbance normalized to zero hour (substrate use), 7 hr [4]: 1.27; 590 nm absorbance normalized to zero hour (substrate use), 8 hr [4]: 1.35; 590 nm absorbance normalized to zero hour (substrate use), 9 hr [4]: 1.49; 590 nm absorbance normalized to zero hour (substrate use), 10 hr [4]: 1.55; 590 nm absorbance normalized to zero hour (substrate use), 11 hr [4]: 1.65; 590 nm absorbance normalized to zero hour (substrate use), 9 hr [3]: 1.49; 590 nm absorbance normalized to zero hour (substrate use), 10 hr [3]: 1.55; 590 nm absorbance normalized to zero hour (substrate use), 11 hr [3]: 1.65 |
| C[C@@H]1OC(O)[C@@H](O)[C@H](O)[C@@H]1O (stereo partly drawn) [L-Fucose] | 0.10 | 0.20 | 0.18 | 0.18 | 0.26 | 0.27 | 0.26 | 0.24 | 0.26 | 0.10 | 0.22 | 0.25 | 0.21 | 0.28 | 0.33 | 0.35 | 0.42 | 0.45 | 0.47 | 0.50 | 590 nm absorbance normalized to zero hour (substrate use), 0 hr [1]: 1.00; Substrate use, 590 nm absorbance normalized to zero hour, 0 hr [1]: 1.00; 590 nm absorbance normalized to zero hour (substrate use), 0 hr [2]: 1.00; 590 nm absorbance normalized to zero hour (substrate use), 1 hr [2]: 0.21; 590 nm absorbance normalized to zero hour (substrate use), 2 hr [2]: 0.28; 590 nm absorbance normalized to zero hour (substrate use), 3 hr [2]: 0.33; 590 nm absorbance normalized to zero hour (substrate use), 4 hr [2]: 0.35; 590 nm absorbance normalized to zero hour (substrate use), 5 hr [2]: 0.42; 590 nm absorbance normalized to zero hour (substrate use), 6 hr [2]: 0.45; 590 nm absorbance normalized to zero hour (substrate use), 7 hr [2]: 0.47; 590 nm absorbance normalized to zero hour (substrate use), 8 hr [2]: 0.50; 590 nm absorbance normalized to zero hour (substrate use), 9 hr [2]: 0.54; 590 nm absorbance normalized to zero hour (substrate use), 10 hr [2]: 0.57; 590 nm absorbance normalized to zero hour (substrate use), 11 hr [2]: 0.61; 590 nm absorbance normalized to zero hour (substrate use), 0 hr [3]: 1.00; 590 nm absorbance normalized to zero hour (substrate use), 9 hr [3]: 0.54; 590 nm absorbance normalized to zero hour (substrate use), 10 hr [3]: 0.57; 590 nm absorbance normalized to zero hour (substrate use), 11 hr [3]: 0.61 |
